According to the NIST ThermoML archive (doi:10.1016/j.jct.2016.10.023):
“And” between values parts separate entries of the source, which are not always exact repeats. Identical values can stand only once.

Assay: xn = mol fraction of the nth substance listed
Conditions: Constant-volume piezometry

CCCCC [pentane] + CCCO
Conditions | mass density
473.15 K, 3570 kPa, Gas, x1 = 0.9 | 221.23 kg/m3
473.15 K, 3581 kPa, Fluid (supercritical or subcritical phases), x1 = 0.9 | 202.87 kg/m3
473.15 K, 3589 kPa, Fluid (supercritical or subcritical phases), x1 = 0.9 | 221.23 kg/m3
473.15 K, 3592 kPa, Gas, x1 = 0.8 | 140.64 kg/m3
473.15 K, 3596 kPa, Fluid (supercritical or subcritical phases), x1 = 0.9 | 233.64 kg/m3 and 237.11 kg/m3
473.15 K, 3598 kPa, Fluid (supercritical or subcritical phases), x1 = 0.9 | 241.52 kg/m3
473.15 K, 3600 kPa, Fluid (supercritical or subcritical phases), x1 = 0.9 | 244.84 kg/m3
473.15 K, 3614 kPa, Fluid (supercritical or subcritical phases), x1 = 0.9 | 282.71 kg/m3
473.15 K, 3634 kPa, Fluid (supercritical or subcritical phases), x1 = 0.9 | 302.44 kg/m3
473.15 K, 3679 kPa, Fluid (supercritical or subcritical phases), x1 = 0.9 | 313.12 kg/m3
473.15 K, 3689 kPa, Fluid (supercritical or subcritical phases), x1 = 0.8 | 316.17 kg/m3
473.15 K, 3767 kPa, Liquid, x1 = 0.8 | 311.76 kg/m3
473.15 K, 3769 kPa, Liquid, x1 = 0.8 | 312.18 kg/m3
473.15 K, 3862 kPa, Liquid, x1 = 0.8 | 334.71 kg/m3
473.15 K, 3867 kPa, Fluid (supercritical or subcritical phases), x1 = 0.9 | 334.89 kg/m3
473.15 K, 4019 kPa, Liquid, x1 = 0.8 | 346.27 kg/m3
473.15 K, 4251 kPa, Fluid (supercritical or subcritical phases), x1 = 0.9 | 355.05 kg/m3
473.15 K, 4349 kPa, Liquid, x1 = 0.5 | 442.18 kg/m3
473.15 K, 4439 kPa, Liquid, x1 = 0.8 | 362.89 kg/m3
473.15 K, 5156 kPa, Liquid, x1 = 0.5 | 452.53 kg/m3
473.15 K, 5785 kPa, Liquid, x1 = 0.5 | 459.62 kg/m3
473.15 K, 6747 kPa, Fluid (supercritical or subcritical phases), x1 = 0.9 | 408.4 kg/m3
473.15 K, 6942 kPa, Liquid, x1 = 0.5 | 469.49 kg/m3
473.15 K, 7120 kPa, Liquid, x1 = 0.8 | 419.36 kg/m3
473.15 K, 7219 kPa, Liquid, x1 = 0.2 | 548.71 kg/m3
473.15 K, 13549 kPa, Liquid, x1 = 0.5 | 508.06 kg/m3
473.15 K, 13806 kPa, Liquid, x1 = 0.8 | 468.05 kg/m3
473.15 K, 16233 kPa, Liquid, x1 = 0.5 | 520.92 kg/m3
473.15 K, 16852 kPa, Liquid, x1 = 0.2 | 583.19 kg/m3
473.15 K, 20923 kPa, Liquid, x1 = 0.8 | 497.59 kg/m3
473.15 K, 22686 kPa, Liquid, x1 = 0.2 | 596.85 kg/m3
473.15 K, 24900 kPa, Liquid, x1 = 0.5 | 549.88 kg/m3
473.15 K, 30448 kPa, Liquid, x1 = 0.8 | 522.21 kg/m3
473.15 K, 32094 kPa, Liquid, x1 = 0.2 | 616.32 kg/m3
473.15 K, 38268 kPa, Liquid, x1 = 0.5 | 576.1 kg/m3
474.15 K, 3452 kPa, Liquid, x1 = 0.5 | 418.33 kg/m3
474.15 K, 3457 kPa, Liquid, x1 = 0.5 | 418.33 kg/m3
474.15 K, 3855 kPa, Liquid, x1 = 0.8 | 311.75 kg/m3
474.15 K, 3858 kPa, Liquid, x1 = 0.8 | 312.16 kg/m3
475.15 K, 3641 kPa, Liquid, x1 = 0.5 | 418.31 kg/m3
475.15 K, 3789 kPa, Fluid (supercritical or subcritical phases), x1 = 0.9 | 302.41 kg/m3
475.15 K, 3944 kPa, Liquid, x1 = 0.8 | 312.15 kg/m3
477.15 K, 3017 kPa, Liquid, x1 = 0.2 | 510.96 kg/m3
478.15 K, 3181 kPa, Gas, x1 = 0.5 | 89.1 kg/m3
478.15 K, 3700 kPa, Liquid, x1 = 0.5 | 399.08 kg/m3
478.15 K, 3850 kPa, Fluid (supercritical or subcritical phases), x1 = 0.8 | 214.32 kg/m3
478.15 K, 3857 kPa, Fluid (supercritical or subcritical phases), x1 = 0.8 | 220.1 kg/m3
478.15 K, 3944 kPa, Fluid (supercritical or subcritical phases), x1 = 0.8 | 273.15 kg/m3
480.15 K, 3218 kPa, Gas, x1 = 0.5 | 89.09 kg/m3
480.15 K, 3965 kPa, Fluid (supercritical or subcritical phases), x1 = 0.8 | 220.08 kg/m3
480.15 K, 4198 kPa, Fluid (supercritical or subcritical phases), x1 = 0.9 | 302.34 kg/m3
482.15 K, 3886 kPa, Liquid, x1 = 0.5 | 384.8 kg/m3
483.15 K, 867 kPa, Gas, x1 = 0.5 | 15.55 kg/m3
483.15 K, 1195 kPa, Gas, x1 = 0.8 | 22.57 kg/m3
483.15 K, 1378 kPa, Gas, x1 = 0.2 | 24.98 kg/m3
483.15 K, 1547 kPa, Gas, x1 = 0.5 | 30.04 kg/m3
483.15 K, 1753 kPa, Gas, x1 = 0.8 | 36.76 kg/m3
483.15 K, 2012 kPa, Gas, x1 = 0.5 | 40.56 kg/m3
483.15 K, 2335 kPa, Gas, x1 = 0.5 | 51.19 kg/m3
483.15 K, 2505 kPa, Gas, x1 = 0.8 | 58.52 kg/m3
483.15 K, 2571 kPa, Gas, x1 = 0.2 | 53.11 kg/m3
483.15 K, 2845 kPa, Gas, x1 = 0.5 | 67.65 kg/m3
483.15 K, 2913 kPa, Gas, x1 = 0.8 | 73.93 kg/m3
483.15 K, 2963 kPa, Gas, x1 = 0.5 | 72.74 kg/m3
483.15 K, 3039 kPa, Gas, x1 = 0.9 | 83.54 kg/m3

Liquid
Conditions | mass density [kg/m3]
473.15 K, x1 = 0.5 | 418.35
474.15 K, x1 = 0.8 | 299.93
475.25 K, x1 = 0.8 | 289.08
475.65 K, x1 = 0.8 | 273.18
475.95 K, x1 = 0.8 | 259.17
476.15 K, x1 = 0.8 | 245.91
476.35 K, x1 = 0.2 | 510.98
476.45 K, x1 = 0.5 | 399.12
482.15 K, x1 = 0.5 | 373.68
